Results as given in patent US10059713B2 (Takeda Pharmaceutical Company Limited, priority 2014, dated 2018).
pEC50: −log10 of the molar value.

target: human GPR43 (Homo sapiens (Human), UniProt O15552); assay: Ca-Flux functional assay: determination of agonist/positive allosteric modulator (PAM) activity; assay type: cell-based; settings: CHO-K1 Gα16 cells stably expressing human GPR43; compound added with EC20 sodium acetate; intracellular Ca2+ by FLIPR; does not distinguish agonist from PAM
Procedure: Ca-Flux Functional Assay: Determination of Agonist/Positive Allosteric Modulator (PAM) Activity
GPR43 agonist/PAM activity was determined by measuring changes in intracellular calcium levels using a Ca^2+ sensitive fluorescent dye. The changes in fluorescent signal were monitored by FLIPR (manufactured by Molecular Devices). GPR43 mediated increases in intracellular Ca^2+ concentration were readily detected upon activation with sodium acetate. Prior to the assay (24 hours), CHO-K1 Gα16 cells stably expressing human GPR43 were-seeded in cell culture medium in black, clear-bottom 384-well plates (Corning Inc) and grown overnight at 37° C., 5% CO2. On the day of the assay, cell culture media was removed and cells were loaded with Calcium 5 Dye (Molecular Devices) diluted in HBSS containing 25 mM HEPES, 2.5 mM Probenecid, 0.1% BSA for 1 hour at 37° C., 5% CO2. 10 point half log concentration response curves of sodium acetate from 10 mM were conducted prior to the testing of compounds to calculate the sodium acetate concentration that produces 20% of the maximal response (EC20). Test compounds (at 10 point half log concentration response curves from 10 μM) were added in the presence of sodium acetate to achieve a final concentration that produces approximately 20% maximal response as calculated from the previous experiment. The changes in fluorescent signal were monitored by FLIPR upon addition of the compound/EC20 sodium acetate mix. The EC50 values were determined from ten point concentration response curves. Curves were generated using the average of two wells for each data point.
The above assay detects both GPR43 receptor agonists and positive allosteric modulators of the GPR43 receptor, without distinguishing between the two. Activity in either regard is useful in the treatment of conditions associated with GPR43 receptor activity.

Sequence of human GPR43 (O15552 whole entry): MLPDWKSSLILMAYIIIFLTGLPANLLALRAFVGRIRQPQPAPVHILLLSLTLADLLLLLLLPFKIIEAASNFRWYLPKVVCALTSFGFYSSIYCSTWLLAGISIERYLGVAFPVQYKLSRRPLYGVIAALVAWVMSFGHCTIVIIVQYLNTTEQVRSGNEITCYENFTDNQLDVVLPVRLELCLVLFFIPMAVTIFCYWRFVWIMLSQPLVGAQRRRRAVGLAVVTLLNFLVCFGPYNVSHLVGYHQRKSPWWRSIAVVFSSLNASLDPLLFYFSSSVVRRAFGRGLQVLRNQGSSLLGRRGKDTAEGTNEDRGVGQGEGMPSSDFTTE

Structure (SMILES)	pEC50
Cc1nc(N2CCO[C@@H](C)C2)c2[nH]c(N)c(S(=O)(=O)c3ccccc3)c2n1 [Example 226, 7-(benzenesulfonyl)-2-methyl-4-[(2S)-2-methylmorpholin-4-yl]-5H-pyrrolo[3,2-d]pyrimidin-6-amine]	7.89
CC1CN(c2ncnc3c(S(=O)(=O)c4ccccc4)c(N)[nH]c23)CC(C)S1 (stereo not shown) [Example 197, 7-(benzenesulfonyl)-4-(2,6-dimethylthiomorpholin-4-yl)-5H-pyrrolo[3,2-d]pyrimidin-6-amine]	8.40
Cc1nc(N2CCO[C@@H](C)C2)c2[nH]c(N)c(S(=O)(=O)c3ccc(Cl)cc3F)c2n1 [Example 235, 7-(4-chloro-2-fluorobenzenesulfonyl)-2-methyl-4-[(2S)-2-methylmorpholin-4-yl]-5H-pyrrolo[3,2-d]pyrimidin-6-amine]	8.70
Nc1[nH]c2c(N3CCC(F)(F)C3)ncnc2c1S(=O)(=O)c1ccccc1 [Example 29, 7-(benzenesulfonyl)-4-(3,3-difluoropyrrolidin-1-yl)-5H-pyrrolo[3,2-d]pyrimidin-6-amine]	6.40
CCN(Cc1ccco1)c1ncnc2c(S(=O)(=O)c3ccccc3)c(N)[nH]c12 [Example 62, 7-(benzenesulfonyl)-4-N-ethyl-4-N-(furan-2-ylmethyl)-5H-pyrrolo[3,2-d]pyrimidine-4,6-diamine]	7.04
COc1ccc(N(C)S(=O)(=O)c2c(N)[nH]c3c(C4=CCCCC4)ncnc23)cc1 [Example 14, 6-amino-4-(cyclohex-1-en-1-yl)-N-(4-methoxyphenyl)-N-methyl-5H-pyrrolo[3,2-d]pyrimidine-7-sulfonamide]	5.59
Nc1[nH]c2c(N3CCOC4CCCC43)ncnc2c1S(=O)(=O)c1ccccc1 (stereo not shown) [Example 215, 7-(benzenesulfonyl)-4-{octahydrocyclopenta[b]morpholin-4-yl}-5H-pyrrolo[3,2-d]pyrimidin-6-amine]	7.21
Nc1[nH]c2c(OCC3CCCC3)ncnc2c1S(=O)(=O)c1ccccc1 [Example 201, 7-(benzenesulfonyl)-4-(cyclopentylmethoxy)-5H-pyrrolo[3,2-d]pyrimidin-6-amine]	7.30
COc1ccc(S(=O)(=O)c2c(N)[nH]c3c(N4CCOC(C)(C)C4)nc(C)nc23)c(F)c1 [Example 241, 4-(2,2-dimethylmorpholin-4-yl)-7-(2-fluoro-4-methoxybenzenesulfonyl)-2-methyl-5H-pyrrolo[3,2-d]pyrimidin-6-amine]	8.70
Cc1nc(N2CCO[C@H](C(F)(F)F)C2)c2[nH]c(N)c(S(=O)(=O)c3ccc(Cl)cc3F)c2n1 [Example 284, 7-(4-chloro-2-fluorobenzenesulfonyl)-2-methyl-4-[(2S)-2-(trifluoromethyl)morpholin-4-yl]-5H-pyrrolo[3,2-d]pyrimidin-6-amine]	8.70
COc1ccc(S(=O)(=O)c2c(N)[nH]c3c(N4CCO[C@@H](C)C4)nc(C)nc23)c(F)c1 [Example 233, 7-(2-fluoro-4-methoxybenzenesulfonyl)-2-methyl-4-[(2S)-2-methylmorpholin-4-yl]-5H-pyrrolo[3,2-d]pyrimidin-6-amine]	8.52
Nc1[nH]c2c(OCC3CC(F)(F)C3)ncnc2c1S(=O)(=O)c1ccccc1 [Example 171, 7-(benzenesulfonyl)-4-[(3,3-difluorocyclobutyl)methoxy]-5H-pyrrolo[3,2-d]pyrimidin-6-amine]	6.87
Cc1nc(N2CCOC3(CC3)C2)c2[nH]c(N)c(S(=O)(=O)c3ccccc3F)c2n1 [Example 208, 7-(2-fluorobenzenesulfonyl)-2-methyl-4-{4-oxa-7-azaspiro[2.5]octan-7-yl}-5H-pyrrolo[3,2-d]pyrimidin-6-amine]	8.52
Cc1nc(N2C[C@H](C)OC[C@@H]2C)c2[nH]c(N)c(S(=O)(=O)c3ccccc3F)c2n1 [Example 223, 4-[(2S,5S)-2,5-dimethylmorpholin-4-yl]-7-(2-fluorobenzenesulfonyl)-2-methyl-5H-pyrrolo[3,2-d]pyrimidin-6-amine]	8.15
Nc1[nH]c2c(C3=CCCCC3)ncnc2c1S(=O)(=O)c1ccc(Cl)cc1 [Example 21, 7-[(4-chlorobenzene)sulfonyl]-4-(cyclohex-1-en-1-yl)-5H-pyrrolo[3,2-d]pyrimidin-6-amine]	7.27
Nc1[nH]c2c(C3=CCCCC3)ncnc2c1S(=O)(=O)c1ccccc1 [Example 2, 7-(benzenesulfonyl)-4-(cyclohex-1-en-1-yl)-5H-pyrrolo[3,2-d]pyrimidin-6-amine]	7.68
COc1ccc(S(=O)(=O)c2c(N)[nH]c3c(N4CCCC(C)C4)ncnc23)cc1 (stereo not shown) [Example 106, 7-(4-methoxybenzenesulfonyl)-4-(3-methylpiperidin-1-yl)-5H-pyrrolo[3,2-d]pyrimidin-6-amine]	7.82

Structure (SMILES)	pEC50
CSc1nc(N2CCOC(C)C2)c2[nH]c(N)c(S(=O)(=O)c3ccccc3F)c2n1 (stereo not shown) [Example 269, 7-(2-fluorobenzenesulfonyl)-4-(2-methylmorpholin-4-yl)-2-(methylsulfanyl)-5H-pyrrolo[3,2-d]pyrimidin-6-amine]	8.05
Nc1[nH]c2c(O[C@H]3CCOC3)ncnc2c1S(=O)(=O)c1ccccc1 [Example 158, 7-(benzenesulfonyl)-4-[(3S)-oxolan-3-yloxy]-5H-pyrrolo[3,2-d]pyrimidin-6-amine]	5.51
Cc1nc(N2CCC(F)(F)CC2)c2[nH]c(N)c(S(=O)(=O)c3ccccc3F)c2n1 [Example 186, 4-(4,4-difluoropiperidin-1-yl)-7-(2-fluorobenzenesulfonyl)-2-methyl-5H-pyrrolo[3,2-d]pyrimidin-6-amine]	7.85
Nc1[nH]c2c(OC3CCCCC3)ncnc2c1S(=O)(=O)c1ccccc1 [Example 160, 7-(benzenesulfonyl)-4-(cyclohexyloxy)-5H-pyrrolo[3,2-d]pyrimidin-6-amine]	7.41
Nc1[nH]c2c(N3CCC(OCC4CC4)CC3)ncnc2c1S(=O)(=O)c1ccccc1 [Example 116, 7-(benzenesulfonyl)-4-[4-(cyclopropylmethoxy)piperidin-1-yl]-5H-pyrrolo[3,2-d]pyrimidin-6-amine]	7.10
Nc1[nH]c2c(C3=CCCCC3)nncc2c1S(=O)(=O)c1ccccc1 [Example 227, 3-(benzenesulfonyl)-7-(cyclohex-1-en-1-yl)-1H-pyrrolo[2,3-d]pyridazin-2-amine]	6.99
Nc1[nH]c2c(N3CCO[C@@H](c4ccccc4)C3)ncnc2c1S(=O)(=O)c1ccccc1 [Example 134, 7-(benzenesulfonyl)-4-[(2S)-2-phenylmorpholin-4-yl]-5H-pyrrolo[3,2-d]pyrimidin-6-amine]	7.03
CC1CCCN(c2ncnc3c(S(=O)(=O)c4ccccc4)c(N)[nH]c23)C1 (stereo not shown) [Example 58, 7-(benzenesulfonyl)-4-(3-methylpiperidin-1-yl)-5H-pyrrolo[3,2-d]pyrimidin-6-amine]	7.77
CC1(C)CCCN1c1ncnc2c(S(=O)(=O)c3ccccc3)c(N)[nH]c12 [Example 56, 7-(benzenesulfonyl)-4-(2,2-dimethylpyrrolidin-1-yl)-5H-pyrrolo[3,2-d]pyrimidin-6-amine]	7.74
Nc1[nH]c2c(N3CCO[C@H](c4ccccc4)C3)ncnc2c1S(=O)(=O)c1ccccc1 [Example 133, 7-(benzenesulfonyl)-4-[(2R)-2-phenylmorpholin-4-yl]-5H-pyrrolo[3,2-d]pyrimidin-6-amine]	7.62
C=C(C)c1ncnc2c(S(=O)(=O)c3ccc(OC)cc3)c(N)[nH]c12 [Example 71, 7-(4-methoxybenzenesulfonyl)-4-(prop-1-en-2-yl)-5H-pyrrolo[3,2-d]pyrimidin-6-amine]	6.26
Cc1nc(COc2ncnc3c(S(=O)(=O)c4ccccc4)c(N)[nH]c23)c(C)o1 [Example 163, 7-(benzenesulfonyl)-4-[(dimethyl-1,3-oxazol-4-yl)methoxy]-5H-pyrrolo[3,2-d]pyrimidin-6-amine]	5.20
Nc1[nH]c2c(OC3CCCC3)ncnc2c1S(=O)(=O)c1ccccc1 [Example 202, 7-(benzenesulfonyl)-4-(cyclopentyloxy)-5H-pyrrolo[3,2-d]pyrimidin-6-amine]	7.30
CCC1CN(c2ncnc3c(S(=O)(=O)c4ccccc4)c(N)[nH]c23)CCO1 (stereo not shown) [Example 79, 7-(benzenesulfonyl)-4-(2-ethylmorpholin-4-yl)-5H-pyrrolo[3,2-d]pyrimidin-6-amine]	7.40
CC1CN(c2ncnc3c(Sc4ccccc4)c(N)[nH]c23)CCO1 (stereo not shown) [Example 236, 4-(2-methylmorpholin-4-yl)-7-(phenylsulfanyl)-5H-pyrrolo[3,2-d]pyrimidin-6-amine]	7.38
COc1ccccc1S(=O)(=O)c1c(N)[nH]c2c(N3CCOC(C)C3)ncnc12 (stereo not shown) [Example 152, 7-(2-methoxybenzenesulfonyl)-4-(2-methylmorpholin-4-yl)-5H-pyrrolo[3,2-d]pyrimidin-6-amine]	5.67
Cc1nc(N2CCCC(C)C2)c2[nH]c(N)c(S(=O)(=O)c3ccccc3)c2n1 (stereo not shown) [Example 110, 7-(benzenesulfonyl)-2-methyl-4-(3-methylpiperidin-1-yl)-5H-pyrrolo[3,2-d]pyrimidin-6-amine]	7.49
